Experimental data from ChEMBL document CHEMBL1201862, “PubChem BioAssay data set” (2004).
Active and inactive are the calls of the source.

What was measured:
[1] = molecular target: T1, Aminopeptidase N (Plasmodium falciparum FcB1/Columbia, UniProt O96935); assay: malaria alanyl aminopeptidase activity blockers – biochemical, fluorogenic H-Leu-NHMec substrate, 1536-well (AID 1445); parameters: species or system Plasmodium falciparum 3D7, 3D7
T1 sequence (O96935 whole entry): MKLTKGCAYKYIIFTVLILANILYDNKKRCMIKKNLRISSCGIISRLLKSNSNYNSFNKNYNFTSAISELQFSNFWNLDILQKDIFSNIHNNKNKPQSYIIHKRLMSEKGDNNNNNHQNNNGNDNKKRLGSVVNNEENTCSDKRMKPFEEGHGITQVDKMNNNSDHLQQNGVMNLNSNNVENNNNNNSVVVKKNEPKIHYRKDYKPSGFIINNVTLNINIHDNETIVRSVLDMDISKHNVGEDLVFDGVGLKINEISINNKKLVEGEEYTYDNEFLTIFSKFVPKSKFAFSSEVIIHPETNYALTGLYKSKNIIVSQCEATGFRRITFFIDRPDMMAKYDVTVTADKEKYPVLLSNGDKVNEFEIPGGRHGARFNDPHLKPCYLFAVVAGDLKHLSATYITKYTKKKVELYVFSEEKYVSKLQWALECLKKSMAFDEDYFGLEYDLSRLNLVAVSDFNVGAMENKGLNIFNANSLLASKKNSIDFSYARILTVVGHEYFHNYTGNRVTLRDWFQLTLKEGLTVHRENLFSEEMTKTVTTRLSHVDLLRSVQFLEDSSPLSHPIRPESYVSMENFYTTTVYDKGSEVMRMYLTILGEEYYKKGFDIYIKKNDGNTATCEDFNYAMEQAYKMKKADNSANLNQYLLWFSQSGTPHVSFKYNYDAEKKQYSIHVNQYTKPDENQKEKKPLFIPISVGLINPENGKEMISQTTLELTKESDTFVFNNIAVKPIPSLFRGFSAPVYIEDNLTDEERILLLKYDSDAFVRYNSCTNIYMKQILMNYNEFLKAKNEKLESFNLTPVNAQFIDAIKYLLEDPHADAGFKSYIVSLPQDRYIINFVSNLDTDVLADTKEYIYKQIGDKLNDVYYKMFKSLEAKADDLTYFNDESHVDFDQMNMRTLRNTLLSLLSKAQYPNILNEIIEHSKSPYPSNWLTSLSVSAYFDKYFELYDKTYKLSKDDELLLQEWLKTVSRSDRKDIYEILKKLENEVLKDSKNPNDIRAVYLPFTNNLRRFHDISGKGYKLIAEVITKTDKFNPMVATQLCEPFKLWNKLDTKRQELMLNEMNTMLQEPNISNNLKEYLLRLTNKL

[2] = molecular target: T2, RNA-binding protein pos-1 (Caenorhabditis elegans, UniProt G5EF15); assay: disruptors of C. elegans POS-1 RNA interaction – biochemical, fluorescence polarization, dose response (AID 1964);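 also: purified POS-1 fused to maltose binding protein made in E. coli; potency of compounds blocking POS-1 binding to fluorescent RNA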
T2 sequence (G5EF15 whole entry): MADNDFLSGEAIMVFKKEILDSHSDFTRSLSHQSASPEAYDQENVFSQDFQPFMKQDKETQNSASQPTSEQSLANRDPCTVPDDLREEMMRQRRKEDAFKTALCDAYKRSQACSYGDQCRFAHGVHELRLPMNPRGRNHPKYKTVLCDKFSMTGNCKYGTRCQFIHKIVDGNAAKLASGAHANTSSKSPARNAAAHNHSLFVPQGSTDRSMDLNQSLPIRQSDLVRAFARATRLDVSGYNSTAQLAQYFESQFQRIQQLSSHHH

[3] = molecular target: T3, Zinc finger protein mex-5 (Caenorhabditis elegans, UniProt Q9XUB2); assay: potency of MEX-5 RNA-binding blockers – biochemical, C. elegans, fluorescence polarization, dose response (AID 1960)
T3 sequence (Q9XUB2 whole entry): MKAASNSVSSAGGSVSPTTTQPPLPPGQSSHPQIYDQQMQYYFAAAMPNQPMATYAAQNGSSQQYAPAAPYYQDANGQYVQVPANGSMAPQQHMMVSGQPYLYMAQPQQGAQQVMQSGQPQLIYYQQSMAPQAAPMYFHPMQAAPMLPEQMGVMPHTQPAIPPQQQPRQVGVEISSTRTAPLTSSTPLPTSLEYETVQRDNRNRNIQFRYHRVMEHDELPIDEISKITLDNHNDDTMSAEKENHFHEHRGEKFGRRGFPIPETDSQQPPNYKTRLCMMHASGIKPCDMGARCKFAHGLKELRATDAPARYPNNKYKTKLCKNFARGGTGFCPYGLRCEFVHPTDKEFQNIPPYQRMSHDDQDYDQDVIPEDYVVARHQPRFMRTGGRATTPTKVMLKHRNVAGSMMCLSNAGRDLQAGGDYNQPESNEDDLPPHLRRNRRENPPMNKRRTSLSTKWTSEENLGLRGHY

[4] = molecular target: Large T antigen (Simian virus 40, UniProt P03070); format: functional, Betapolyomavirus macacae;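 also: Confirmatory-stage PubChem screen for compounds that inhibit SV40 T antigen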
Chain of Large T antigen (P03070 whole entry): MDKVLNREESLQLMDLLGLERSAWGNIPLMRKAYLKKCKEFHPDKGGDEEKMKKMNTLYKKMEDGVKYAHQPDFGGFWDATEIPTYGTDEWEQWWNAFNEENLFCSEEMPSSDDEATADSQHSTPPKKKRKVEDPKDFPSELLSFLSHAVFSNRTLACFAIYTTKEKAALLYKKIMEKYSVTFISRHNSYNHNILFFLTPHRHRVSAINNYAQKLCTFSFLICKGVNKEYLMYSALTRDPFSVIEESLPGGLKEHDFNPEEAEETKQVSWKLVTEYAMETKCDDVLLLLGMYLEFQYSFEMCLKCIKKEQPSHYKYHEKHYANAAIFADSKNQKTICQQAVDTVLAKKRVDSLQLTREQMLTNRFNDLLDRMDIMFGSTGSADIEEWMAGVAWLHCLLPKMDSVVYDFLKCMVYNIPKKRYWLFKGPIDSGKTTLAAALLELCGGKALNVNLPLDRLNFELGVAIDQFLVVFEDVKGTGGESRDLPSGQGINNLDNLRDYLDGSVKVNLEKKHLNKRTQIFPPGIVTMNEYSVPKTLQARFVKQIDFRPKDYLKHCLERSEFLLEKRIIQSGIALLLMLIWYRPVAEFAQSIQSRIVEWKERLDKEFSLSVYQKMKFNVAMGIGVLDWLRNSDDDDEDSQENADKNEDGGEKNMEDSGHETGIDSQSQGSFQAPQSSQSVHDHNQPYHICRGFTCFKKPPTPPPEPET

[5] = molecular target: Induced myeloid leukemia cell differentiation protein Mcl-1 (Homo sapiens, UniProt Q07820); format: functional
Chain of Induced myeloid leukemia cell differentiation protein Mcl-1 (Q07820 whole entry): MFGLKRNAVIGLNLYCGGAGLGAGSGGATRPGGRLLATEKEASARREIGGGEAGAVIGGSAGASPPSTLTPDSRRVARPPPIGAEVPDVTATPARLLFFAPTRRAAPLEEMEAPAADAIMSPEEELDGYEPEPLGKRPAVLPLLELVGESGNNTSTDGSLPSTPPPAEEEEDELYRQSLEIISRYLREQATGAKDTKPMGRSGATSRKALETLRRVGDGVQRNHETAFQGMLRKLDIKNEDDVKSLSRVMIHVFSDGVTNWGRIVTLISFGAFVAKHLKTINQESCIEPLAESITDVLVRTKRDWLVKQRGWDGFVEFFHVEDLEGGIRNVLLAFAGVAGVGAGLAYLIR

[6] = molecular target: T4, DNA dC->dU-editing enzyme APOBEC-3A (Homo sapiens, UniProt P31941); assay: A3A deaminase inhibition for selectivity – biochemical, dose response (AID 504722); format: functional
T4 sequence (P31941 whole entry): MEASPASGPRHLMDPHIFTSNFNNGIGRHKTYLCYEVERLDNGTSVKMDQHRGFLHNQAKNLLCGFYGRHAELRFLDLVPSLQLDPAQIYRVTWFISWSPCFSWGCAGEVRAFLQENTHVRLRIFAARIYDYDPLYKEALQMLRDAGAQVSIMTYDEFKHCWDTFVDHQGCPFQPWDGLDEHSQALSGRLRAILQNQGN

[7] = molecular target: T5, DNA dC->dU-editing enzyme APOBEC-3G (Homo sapiens, UniProt Q9HC16); assay: Dose Response confirmation of small molecule APOBEC3G DNA Deaminase Inhibitors via a fluorescence-based single-stranded DNA deaminase assay. [Related pubchem assays (depositor defined):AID493012, AID493028]; format: functional
T5 sequence (Q9HC16 whole entry): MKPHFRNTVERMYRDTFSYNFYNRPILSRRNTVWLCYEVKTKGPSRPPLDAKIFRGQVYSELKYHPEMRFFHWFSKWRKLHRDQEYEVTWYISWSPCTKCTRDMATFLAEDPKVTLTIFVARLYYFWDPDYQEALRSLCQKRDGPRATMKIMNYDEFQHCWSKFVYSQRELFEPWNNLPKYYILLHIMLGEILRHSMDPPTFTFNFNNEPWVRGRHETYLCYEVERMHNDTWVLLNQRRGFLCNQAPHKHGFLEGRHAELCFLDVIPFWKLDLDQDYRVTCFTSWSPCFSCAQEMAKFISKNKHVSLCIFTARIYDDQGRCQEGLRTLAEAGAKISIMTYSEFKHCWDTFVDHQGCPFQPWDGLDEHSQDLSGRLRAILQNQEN

[8] = molecular target: T6, Rac GTPase-activating protein 1 (Homo sapiens, UniProt Q9H0H5); assay: blockers of MgcRacGAP-driven Rac1 GTP hydrolysis – biochemical, ADP Hunter fluorescence, primary and confirmatory, confirmation (AID 624330); format: functional
T6 sequence (Q9H0H5 whole entry): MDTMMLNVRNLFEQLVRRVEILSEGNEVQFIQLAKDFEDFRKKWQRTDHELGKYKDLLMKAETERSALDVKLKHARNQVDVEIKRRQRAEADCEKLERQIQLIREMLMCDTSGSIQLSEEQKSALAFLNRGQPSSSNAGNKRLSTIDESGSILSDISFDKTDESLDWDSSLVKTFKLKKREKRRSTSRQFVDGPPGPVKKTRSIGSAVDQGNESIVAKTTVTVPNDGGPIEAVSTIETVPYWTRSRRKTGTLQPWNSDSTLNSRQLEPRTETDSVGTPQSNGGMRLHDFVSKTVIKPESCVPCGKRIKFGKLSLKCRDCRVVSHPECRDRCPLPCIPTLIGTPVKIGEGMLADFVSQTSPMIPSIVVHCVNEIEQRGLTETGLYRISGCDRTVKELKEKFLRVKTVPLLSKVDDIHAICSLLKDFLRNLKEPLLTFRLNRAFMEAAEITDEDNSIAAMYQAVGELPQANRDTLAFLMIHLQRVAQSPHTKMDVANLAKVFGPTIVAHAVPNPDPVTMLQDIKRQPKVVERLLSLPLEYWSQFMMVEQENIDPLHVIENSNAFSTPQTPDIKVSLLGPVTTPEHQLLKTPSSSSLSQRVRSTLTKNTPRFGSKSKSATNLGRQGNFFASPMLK

[9] = molecular target: T4, DNA dC->dU-editing enzyme APOBEC-3A; assay: Dose Response confirmation of small molecule APOBEC3A DNA Deaminase Inhibitors via a fluorescence-based single-stranded DNA deaminase assay. [Related pubchem assays (depositor defined):AID493011, AID493024]; format: functional
[10] = molecular target: T5, DNA dC->dU-editing enzyme APOBEC-3G; format: functional
[11] = Trypanosoma cruzi growth suppression in host cells – NIH3T3 host cells, beta-gal luminescence, confirmation (AID 2044); format: functional, cell-based;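 also: intracellular parasites grown in NIH/3T3 mouse fibroblasts as host cells; luminescent beta-galactosidase reporter signal from transgenic T. cruzi replicating inside host cells; inhibitors lower the luminescence signal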
[12] = NIH3T3 cell viability loss – ATP luminescence, mouse fibroblasts, counter-screen, dose response (AID 2010); format: functional, cell-based;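 also: cells exposed to compound for about 90 hours before reading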
[13] = THP-1 cell cytotoxicity, dose response, cytotoxicity control for non-replicating M. tuberculosis project (AID 489025); format: functional
[14] = HepG2 cell cytotoxicity, dose response, cytotoxicity control for non-replicating M. tuberculosis project (AID 489018); format: functional; settings: Mycobacterium tuberculosis
[15] = Vero E6 cell cytotoxicity, dose response, cytotoxicity control for non-replicating M. tuberculosis project, secondary assay (AID 492998); format: functional, VeroE6; settings: Vero C1008
[16] = cells; format: functional
[17] = tested on: INS1; assay: INS-1E survival protection against cytokine death – cell-based, luminescence, retest, dose response (AID 449756); format: functional; settings: Rattus norvegicus;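 also: cell death triggered by IL-1 beta plus TNF-alpha plus IFN-gamma mixture; protective hits raise ATP signal compared with cytokine alone wells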
[18] = tested on: Streptococcus sp. 'group A'; assay: Streptococcus pyogenes SK(-)GAS viability under kanamycin – luminescence, BacTiterGlo, confirmation, counter-screen for streptokinase expression inhibitor project, dose response (AID 1900); format: functional, organism-based
[19] = molecular target: T7, Streptokinase A (Streptococcus pyogenes serotype M1, UniProt P10520); assay: viability-normalized secreted streptokinase activity reduction – plasminogen activation absorbance, OD405, dose response (AID 1914); format: functional, Streptococcus pyogenes M1 GAS;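 also: secreted streptokinase activity via plasminogen activation per viability signal from cell pellet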
T7 sequence (P10520 whole entry): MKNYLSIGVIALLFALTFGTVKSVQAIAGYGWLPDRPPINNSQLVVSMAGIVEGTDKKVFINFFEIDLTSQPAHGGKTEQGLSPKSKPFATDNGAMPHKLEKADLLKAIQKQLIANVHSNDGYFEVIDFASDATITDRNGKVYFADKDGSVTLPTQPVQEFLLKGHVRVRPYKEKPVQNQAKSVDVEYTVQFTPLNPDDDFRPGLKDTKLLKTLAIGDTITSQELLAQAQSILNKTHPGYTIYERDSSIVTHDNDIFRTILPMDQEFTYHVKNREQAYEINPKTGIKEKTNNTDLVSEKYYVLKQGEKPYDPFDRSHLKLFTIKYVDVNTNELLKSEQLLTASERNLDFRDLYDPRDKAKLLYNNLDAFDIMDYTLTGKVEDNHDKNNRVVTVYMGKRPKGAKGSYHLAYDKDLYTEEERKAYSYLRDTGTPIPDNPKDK

[20] = molecular target: T8, Kappa-type opioid receptor (Homo sapiens, UniProt P41145); format: functional
T8 sequence (P41145 whole entry): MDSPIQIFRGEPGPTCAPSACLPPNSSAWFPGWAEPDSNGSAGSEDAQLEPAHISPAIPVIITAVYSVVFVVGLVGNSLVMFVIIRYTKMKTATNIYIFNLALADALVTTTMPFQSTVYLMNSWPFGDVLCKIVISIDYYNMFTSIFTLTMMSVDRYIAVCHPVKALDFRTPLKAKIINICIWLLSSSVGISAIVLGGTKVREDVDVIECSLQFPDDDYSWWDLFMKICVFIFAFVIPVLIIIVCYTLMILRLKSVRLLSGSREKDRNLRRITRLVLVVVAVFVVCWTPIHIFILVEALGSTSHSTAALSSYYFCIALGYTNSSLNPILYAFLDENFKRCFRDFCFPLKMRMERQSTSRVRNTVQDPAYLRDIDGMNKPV

[21] = molecular target: Beta-galactosidase (Escherichia coli, UniProt Q8VNN2); format: functional
Chain of Beta-galactosidase (Q8VNN2 whole entry): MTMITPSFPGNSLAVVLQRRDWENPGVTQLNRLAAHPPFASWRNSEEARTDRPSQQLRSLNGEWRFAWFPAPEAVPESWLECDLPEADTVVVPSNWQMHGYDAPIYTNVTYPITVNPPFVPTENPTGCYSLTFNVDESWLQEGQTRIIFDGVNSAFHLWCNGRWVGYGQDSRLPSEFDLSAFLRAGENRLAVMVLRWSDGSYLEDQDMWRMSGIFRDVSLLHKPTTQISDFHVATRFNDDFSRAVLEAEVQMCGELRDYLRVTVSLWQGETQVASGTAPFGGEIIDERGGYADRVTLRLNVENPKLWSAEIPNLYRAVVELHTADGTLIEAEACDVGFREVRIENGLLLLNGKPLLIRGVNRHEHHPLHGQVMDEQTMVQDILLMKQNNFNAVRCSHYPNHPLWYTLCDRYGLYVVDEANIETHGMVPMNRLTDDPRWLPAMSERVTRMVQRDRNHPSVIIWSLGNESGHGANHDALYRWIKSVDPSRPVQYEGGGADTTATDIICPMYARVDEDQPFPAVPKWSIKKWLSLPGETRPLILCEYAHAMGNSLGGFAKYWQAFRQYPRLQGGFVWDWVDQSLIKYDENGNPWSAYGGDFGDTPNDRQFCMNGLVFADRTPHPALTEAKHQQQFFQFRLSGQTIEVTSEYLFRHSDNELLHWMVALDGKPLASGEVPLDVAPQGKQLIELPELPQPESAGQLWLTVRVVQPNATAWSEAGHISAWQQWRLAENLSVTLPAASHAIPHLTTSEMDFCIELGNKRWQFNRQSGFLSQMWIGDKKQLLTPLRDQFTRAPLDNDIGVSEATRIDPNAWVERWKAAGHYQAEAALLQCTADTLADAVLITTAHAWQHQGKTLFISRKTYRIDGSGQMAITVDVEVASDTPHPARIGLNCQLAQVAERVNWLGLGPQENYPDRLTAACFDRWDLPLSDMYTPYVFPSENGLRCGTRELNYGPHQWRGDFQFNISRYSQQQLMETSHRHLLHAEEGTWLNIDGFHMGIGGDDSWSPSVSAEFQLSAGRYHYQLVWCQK

[22] = molecular target: T8, Kappa-type opioid receptor; format: functional; remark: listed apart in the source
[23] = tested on: Streptococcus; assay: GAS UMAA2166 growth inhibition – luminescence, BacTiterGlo, counter-screen for streptokinase expression inhibitor project, dose response (AID 1915); format: functional, organism-based;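 also: potency for reduction of bacterial viability or growth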
[24] = molecular target: Heat shock protein HSP 90-alpha (Homo sapiens, UniProt P07900); format: functional, organism-based
[25] = molecular target: Neurotensin receptor type 1 (Homo sapiens, UniProt P30989); format: functional;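 also: Image-based confirmatory dose-response assay measuring agonist activity at NTR1; NTR1-expressing U2OS osteosarcoma cells imaged for beta-arrestin GFP spot formation; agonist potency where compounds increase beta-arrestin recruitment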
Chain of Neurotensin receptor type 1 (P30989 whole entry): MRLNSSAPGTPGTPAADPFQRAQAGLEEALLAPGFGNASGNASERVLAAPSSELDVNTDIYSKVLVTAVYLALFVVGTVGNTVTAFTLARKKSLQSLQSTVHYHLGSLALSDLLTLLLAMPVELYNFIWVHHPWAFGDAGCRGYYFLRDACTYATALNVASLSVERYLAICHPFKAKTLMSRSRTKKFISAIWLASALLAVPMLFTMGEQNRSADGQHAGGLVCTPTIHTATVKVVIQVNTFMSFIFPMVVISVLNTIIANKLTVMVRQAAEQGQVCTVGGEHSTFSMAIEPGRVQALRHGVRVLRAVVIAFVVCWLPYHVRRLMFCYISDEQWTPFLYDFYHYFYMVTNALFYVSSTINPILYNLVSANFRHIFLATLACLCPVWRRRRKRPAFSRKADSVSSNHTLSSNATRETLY

[26] = molecular target: T9, Microphthalmia-associated transcription factor (Homo sapiens, UniProt O75030); assay: reducers of TRPM1 reporter luminescence, concentration series – cell-based, SK-MEL-5, cherry-picked, set 3, MITF inhibitor project, dose response (AID 493073); format: functional;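 also: SK-MEL-5 melanoma cells with luciferase driven by the MITF target TRPM1 promoter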
T9 sequence (O75030 whole entry): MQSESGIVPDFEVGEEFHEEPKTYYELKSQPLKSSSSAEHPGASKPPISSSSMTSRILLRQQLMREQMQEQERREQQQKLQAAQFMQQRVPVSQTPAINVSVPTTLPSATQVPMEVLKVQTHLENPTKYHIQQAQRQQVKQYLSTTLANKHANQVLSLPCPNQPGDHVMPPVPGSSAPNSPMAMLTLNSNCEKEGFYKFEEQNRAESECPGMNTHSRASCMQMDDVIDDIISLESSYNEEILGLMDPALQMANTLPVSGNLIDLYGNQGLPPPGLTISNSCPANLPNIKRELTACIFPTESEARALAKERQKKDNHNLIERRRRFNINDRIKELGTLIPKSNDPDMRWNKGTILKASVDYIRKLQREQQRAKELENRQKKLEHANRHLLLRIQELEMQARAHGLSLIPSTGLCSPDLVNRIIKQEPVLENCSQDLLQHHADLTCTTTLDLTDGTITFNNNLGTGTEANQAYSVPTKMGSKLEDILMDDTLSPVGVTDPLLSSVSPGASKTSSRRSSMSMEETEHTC

SMILES: Nc1cc(C(=O)O)c(N)c2c1C(=O)c1ccccc1C2=O
- IC50 [1]: 58.9 µM (active)
- EC50 [2]: 4.27 µM (active)
- EC50 [3]: 2.39 µM (active)
- IC50 [4]: 21.9 µM (active)
- IC50 [5]: 3.71 µM (active)

SMILES: Cc1cccc(-c2nnc(S)n2/N=C/c2ccco2)c1
- IC50 [6]: > 100 µM (inactive)
- IC50 [7]: 2.1 µM (active)
- IC50 [8]: 89.6 µM (active)

SMILES: C=CCNC(=O)c1ccccc1NC(=O)C1CCN(S(=O)(=O)c2ccc(SC)cc2)CC1
- IC50 [9]: 5.28 µM (active)
- IC50 [10]: 6.15 µM (active)

SMILES: O=C(Cc1cccs1)N/N=C\c1ccc([N+](=O)[O-])s1
- EC50 [11]: 360 nM (active)
- EC50 [12]: 17.5 µM (active)
- CC50 [13]: 15.3 µM (active)
- CC50 [14]: 17.7 µM (active)
- CC50 [15]: 11.5 µM (active)
- IC50 [16]: 9.65 µM (active)
- AC50 [17]: 6.28 µM (active)

SMILES: Sc1nnc(-c2ccco2)n1/N=C/c1c(Cl)cccc1Cl
- IC50 [6]: > 100 µM (inactive)
- IC50 [7]: 5.03 µM (active)

SMILES: Cc1[nH]c(N=Nc2ccccc2)nc1N=Nc1ccccc1
- EC50 [18]: 3.49 µM (active)
- EC50 [19]: 23.4 µM (active)
- EC50 [11]: 1120 nM (active)
- IC50 [20]: 8.4 µM (active)
- EC50 [12]: 4.45 µM (active)
- EC50 [21]: 17.4 µM (active)
- IC50 [22]: > 32 µM
- EC50 [23]: > 50 µM (not active)
- AC50 [24]: 3.76 µM (active)
- AC50 [17]: 3.72 µM (active)

SMILES: CCOC(=O)/C=c1\s/c(=C\c2ccc3cc(OC)ccc3c2)c(=O)n1CC(=O)NCC1CCCO1 (stereo not drawn)
- EC50 [2]: 90.4 µM (active)
- EC50 [3]: > 300 µM (not active)
- EC50 [25]: 7.15 µM (active)
- AC50 [26]: 5.73 µM (active)
